# Patent US20100003287A1, “Compositions and Methods Relating to Treatment of Cancer and Infectious Diseases” (THE PROVOST, FELLOWS AND SCHOLARS OF THE COLL. OF THE HOLY …, priority 2005, published 2010)
# Assays:
# bone marrow-derived DC [1] = conditions: for IL-10 production from CpG-ODN- or LPS-stimulated DC: inhibitor 1 h (U0126 1.25-5 μM, SB203580 0.1-10 μM) before CpG-ODN 5 μg/ml or LPS 100 ng/ml, 24 h; for IL-12p70 production from TLR ligand-stimulated DC: inhibitor pre-incubation, LPS or CpG-ODN
# Description: (§1) Bone-marrow derived immature DC (BMDC) were generated by cultivation of extracted bone marrow cells with GM-CSF (40 ng/ml) for 10 days. BMDC from either BALB/c or C57BL/6 mice were incubated with 1 ng/ml-10 μg/ml of the TLR agonists, Pam3CSK4, Zymosan, LPS, Flagellin, PolylC, CpG-OCDN or medium only.
# DC were pre-incubated for 1 h with the MEK 1/2 inhibitor (U0126) and then incubated for 15 min with medium only or with Pam3Cys, Zymosan, LPS, Flagellin, or CpG-ODN (1 or 5 μg/ml). […] DC were stimulated with medium only (0) or for 0.5, 1, 2, 4, 8 or 12 h with LPS (100 ng/ml). […] Cells treated with DMSO were used as negative controls.
# Superntants were removed, and aliquots was measured for IL-10, IL-12p70 and IL-6 by ELISA (FIG. 11).
# ERK = format: cell-based, mice
# Description: In certain experiments, the ERK or p38 inhibitors were added 1 hr before the TLR ligands. Cell lysates were resolved by SDS-PAGE, transferred to nitrocellulose membranes and blotted with antibodies specific for phospho-p38 (pp38; Cell Signal Technology, Mass., USA), or phospho-ERK (pERK; Santa Cruz Biotechnologies, USA) and a horseradish peroxidase-linked secondary antibody. The nitrocellulose was stripped and probed with antibodies specific for total p38 or total ERK.
# [2] = test system: PGE2 production by dendritic cells; test: TLR agonist induced PGE2 production by DC (ELISA); format: cell-based; conditions: 24 hours
# Description: Bone marrow-derived dendritic cells (DC) were stimulated in vitro with CpG (5 μg) or the ERK inhibitor, U0126 (5 μM), or both for 24 hours. Supernatants were removed and PGE2 concentrations determined by ELISA. **p<0.01 CpG+p38 inhibitor versus CpG by ANOVA (FIG. 25).
# Bone marrow-derived DC were stimulated with CpG (5 μg) alone or in the presence of the Cox-2 inhibitor, NS-398. After 24 hours, supernatants were removed and concentrations of PGE2 (FIG. 26(a)) were determined by ELISA. *p<0.05 CpG+p38 inhibitor versus CpG by ANOVA.
# Supernatants were removed and PGE2 concentrations determined by ELISA. *p<0.05 CpG+p38 inhibitor versus CpG by ANOVA (FIG. 27).
# [3] = test system: IFN-gamma- and IL-10-secreting T cells; test: DC transfer experiment (KLH, CpG and inhibitors), T cell responses in vivo; design: species or system C57BL/6 mice; conditions: DC with KLH 5 μg, CpG 5 μg and inhibitors (NS-398 5 μM, SB203580 1 μM, U0126 5 μM) into footpad; day 5 cells restimulated with KLH
# Description: 2.5×10^5 treated cells were injected into each footpad. Popliteal lymph nodes and spleens were removed after 5 days, and single cell suspensions were restimulated with KLH (2, 10, 50 μg/ml). S/N were removed after 3 days, and aliquots were measured for IFN-gamma and IL-10 by ELISA.
# 2.5×10^5 treated cells were injected into each footpad of 57BL-6 mice. Popliteal lymph nodes and spleens were removed after 5 days, and single cell suspensions were restimulated with KLH (2, 10, 50 μg/ml). Supernatants were removed after 3 days, and IFN-gamma and IL-10 concentrations quantified by ELISA (FIG. 13).
# [4] = test system: immature bone marrow-derived DC; test: DC activation by TLR ligands, cytokine ELISA; conditions: 1 ng/ml-10 μg/ml TLR ligand, 24 h
# Description: After 24 h, supernatants were removed and IL-10, IL-12p40 and IL-12p70 concentrations determined by ELISA. NT, not tested (FIG. 9).
# bone marrow-derived DC [5] = test: Cytokines from DC treated with B16 tumour vaccine, CpG and p38 inhibitor (ELISA); format: cell-based; conditions: DC with heat shocked and irradiated B16 cells 4 hours, CpG 5 μg, SB 203580 5 μM, 24 hours
# Description: Supernatants were removed after 24 hours and IL-10, IL-12p40, IL-12p70 and IL-23 concentrations were determined by ELISA. *p<0.05; ***p<0.0001, CpG+p38 inhibitor versus GpG by ANOVA.
# B16 tumour cells [6] = test: Therapeutic DC vaccine pulsed with B16 cells with or without CpG and p38 inhibitor; format: in vivo, C57BL/6 mice; conditions: for protective efficacy of tumour vaccine (tumour volumes): 5×10^5 DC days 3, 10 and 17
# Text: Tumour growth was routinely monitored. Results represent tumour volumes for individual mice (FIG. 29).
# Tumour growth was routinely monitored. Results represent tumour volumes for individual mice (FIG. 30).
# Mice were routinely monitored for survival. Numbers in parentheses represent statistical difference versus control group (FIG. 31).
# IL-1 beta in lungs = test: Lung IL-1 beta after B. pertussis challenge of immunized mice; format: in vivo; conditions: added to acellular pertussis vaccine with CpG 5 μg; SB203580 50 μM; 4 hours after challenge
# [7] = test system: CD4+ T cells from D011.10 OVA-TCR Tg mice; test: In vitro activation of OVA-TCR T cells with modulated DC; format: cell-based, BALB/c mice; conditions: DC pulsed with OVA peptide 5 μg, CpG 10 μg alone or with SB203580 1 or 5 μM, 24 h; T cells:DC 10:1
# Description: DC from BALB/c were incubated with OVA Class II peptide (5 μg). […] D011.10 OVA-TCR T cells were then added to the BMDC (10:1). Supernatants were removed after 3 and 11 days, and aliquots were measured for IL-10-and IFN-gamma by ELISA.
# Bone marrow-derived DC from BALB/c were incubated with OVA Class II peptide (5 μg). […] Purified CD4+ T cells from D011.10 OVA-TCR Tg mice were stimulated with the DC (10:1) and supernatants were removed 3 days after antigen stimulation and IL-10 and IFNgamma quantified by ELISA (FIG. 12).
# spleen mononuclear cells = test: Spleen cell IFN-gamma and IL-10 after acellular pertussis vaccination; format: in vivo, mice; conditions: added to acellular pertussis vaccine with CpG 5 μg, SB203580 50 μM
# Bordetella pertussis = test: Acellular pertussis vaccine, B. pertussis aerosol challenge, lung CFU counts; format: in vivo; conditions: mice, i.p. 0 and 4 weeks, 0.02 human dose vaccine, CpG 5 μg, SB203580 50 μM; aerosol challenge 2 weeks later
# bone marrow-derived DC [8] = test: CpG-stimulated DC with Cox-2 inhibitor NS-398, cytokine mRNA RT-PCR; format: cell-based, C57BL/6 mice
# bone marrow-derived DC [9] = test: CpG-stimulated DC with Cox-2 inhibitor NS-398, cytokine ELISA; format: cell-based, C57BL/6 mice
# Description: as §1
# CD80 on CD11c+ DC = test: CD80 expression on DC (cytofluorometric analysis); format: cell-based; conditions: HSP70 vaccine 5 mg/ml, NS398 5 mM, 24 hours, gated on CD11c+
# Description: Bone marrow derived DC were incubated with medium only (Control), HSP70 vaccine (5 mg/ml), the Cox-2 inhibitor NS398 (5 mM), HSP70 and Cox-2 inhibitor or LPS (10 ng/ml). After 24 hours cells were labelled with anti-CD80 and CD11C antibodies and cytofluorometric analysis performed. Results represent mean fluorescence intensity (MFI) on cells that were gated on the CD11c+ DC population (FIG. 24).
# B16 tumour cells [10] = test: Direct tumour therapy with CpG and Celecoxib; format: in vivo, C57BL/6 mice; conditions: CpG 20 μg, Celecoxib 500 μg or both s.c. at tumour site, days 3, 5 and 7
# Description: C57BL/6 mice were challenged with 2×10^5 tumour cells s.c. and injected s.c. on days 3, 5 and 7 with either CpG (10 or 20 μg), the Cox-2 inhibitor Celecoxib (100 or 500 μg) or a combination of both at the tumour site. Mice were routinely monitored for tumour growth and survival. Tumour size was measured in two dimensions by callipers and determined by the following formula: (width^2×length)×π/6 where width is the lesser value. Mice were killed when tumour a length measured greater than 15 mm.
# Mice were routinely monitored for tumour growth (FIG. 19).
# Tumour volumes were routinely monitored (FIG. 20).
# C57BL/6 mice were challenged with 2×10^5 tumour cells s.c. and injected s.c. on days 3, 5 and 7 with either CpG (20 μg), the Cox-2 inhibitor Celecoxib (500 μg) or a combination of both at the tumour site. Mice were routinely monitored for tumours and survival (FIG. 21).
# [11] = test system: draining lymph node cells; test: Immunisation with KLH and TLR ligands, antigen-specific cytokine production by lymph node cells (ELISA); format: in vivo, BALB/c mice; conditions: s.c. KLH 5 μg alone or with adjuvant; lymph node cells day 7, KLH 50 μg/ml, 3 days
# [12] = CpG 5 μg with inhibitor (U0126 5 μM or NS-398)
# [13] = CpG 10 μg alone or with NS-398 1 or 10 μM, 24 h
# [14] = CpG 10 μg alone or with various concentrations of NS-398, 24 h
compound,measurement,setting,value
N#CC(=C(/N)Sc1ccccc1N)/C(C#N)=C(\N)Sc1ccccc1N [U0126],enhancement of IL-12p70 production in DC from IL-10−/− mice,bone marrow-derived DC [1]; data not shown,retained
same,IL-10 production from CpG-ODN- or LPS-stimulated DC,bone marrow-derived DC [1],suppressed
same,IL-12p70 production from TLR ligand-stimulated DC,bone marrow-derived DC [1],enhanced
same,TLR-ligand induced ERK phosphorylation,ERK,inhibited
same,CpG-induced PGE2 production by dendritic cells,[2]; [12],reverses
same,induction of IFN-gamma-secreting T cells (Th1) in vivo,[3],suppressed
same,induction of IL-10 secreting T cells in vivo,[3],suppressed
Pam3CSK4,IL-10 production from DC,[4],induced production
same,IL-12p40 production from DC,[4],induced production
same,IL-12p70 production from DC,[4],induced production
C[S+]([O-])c1ccc(-c2nc(-c3ccncc3)c(-c3ccc(F)cc3)[nH]2)cc1 (stereo not shown) [SB203580],CpG-induced IL-10 production by dendritic cells,bone marrow-derived DC [5],reverses
same,IL-12 production by dendritic cells,bone marrow-derived DC [5],enhancing
same,IL-23 production,bone marrow-derived DC [5],not affected
same,survival of mice,"B16 tumour cells [6]; DC activated with killed whole B16 cells alone or with CpG 5 μg, SB 203580 5 μM, days 3, 10 and 17",enhances survival
same,protective efficacy of tumour vaccine (tumour volumes),"B16 tumour cells [6]; DC activated with killed whole B16 cells and CpG 5 μg, SB203580 5 μM",enhances
same,protective efficacy of tumour vaccine (tumour volumes),"B16 tumour cells [6]; DC activated with killed whole B16 cells, SB 203580 5 μM",enhances
same,local IL-1 beta in the lungs,IL-1 beta in lungs,enhanced
same,induction of IFN-gamma-secreting T cells,[7],enhanced
same,induction of IL-10 secreting T cells,[7],suppressed
same,IL-10 production from CpG-ODN- or LPS-stimulated DC,bone marrow-derived DC [1],inhibited
same,IL-12p70 production from TLR ligand-stimulated DC,bone marrow-derived DC [1],enhanced
same,CpG-induced PGE2 production by dendritic cells,"[2]; DC treated with heat shocked and irradiated B16 cells 4 hours, CpG 5 μg, SB 203580 5 μM",reverses
same,induction of IFN-gamma-secreting T cells (Th1) in vivo,[3],enhanced
same,induction of IL-10 secreting T cells in vivo,[3],suppressing
same,IFN-gamma responses,spleen mononuclear cells,enhanced
same,IL-10 responses,spleen mononuclear cells,reduced
same,protective efficacy against B. pertussis challenge,Bordetella pertussis,significantly enhances
CS(=O)(=O)Nc1ccc([N+](=O)[O-])cc1OC1CCCCC1 [NS-398],IL-12p35 mRNA expression in DC,bone marrow-derived DC [8]; [13],enhanced
same,IL-12p40 mRNA expression in DC,bone marrow-derived DC [8]; [13],enhanced
same,IL-27p28 mRNA expression in DC,bone marrow-derived DC [8]; [14],enhanced
same,CpG-induced IL-10 mRNA expression in DC,"bone marrow-derived DC [8]; CpG 10 μg with NS-398, 24 h",suppressed
same,CpG-induced IL-10 production by dendritic cells,"bone marrow-derived DC [9]; CpG 5 μg with NS-398, 24 h",reverses
same,IL-10 production by DC,bone marrow-derived DC [9]; [14],suppressed
same,IL-12p40 (IL-12) production by DC,bone marrow-derived DC [9]; [14],enhanced
same,CpG-induced PGE2 production by dendritic cells,[2]; [12],reverses
same,induction of IFN-gamma-secreting T cells (Th1) in vivo,[3],enhanced
same,induction of IL-10 secreting T cells in vivo,[3],suppressing
same,CD80 expression (mean fluorescence intensity),CD80 on CD11c+ DC,neither Cox-2 nor HSP70 alone enhanced
Cc1ccc(-c2cc(C(F)(F)F)nn2-c2ccc(S(N)(=O)=O)cc2)cc1 [Celecoxib],mice survived,B16 tumour cells [10],20%
Flagellin,IL-10 production from DC,[4],induced production
same,IL-12p40 production from DC,[4],induced production
same,IL-12p70 production from DC,[4],induced production
lipopolysaccharide [LPS],IL-10 production from DC,[4],induced production
same,IL-12p40 production from DC,[4],induced production
same,IL-12p70 production from DC,[4],induced production
same,KLH-specific IFN-gamma production,[11],high concentrations
same,KLH-specific IL-4 production,[11],low or undetectable
same,time for which LPS-induced ERK phosphorylation was still evident,"ERK; LPS 100 ng/ml, 0.5-12 h",up to 8 hours
same,time of maximal LPS-induced ERK phosphorylation,"ERK; LPS 100 ng/ml, 0.5-12 h",30 min
